Measurements as given in patent US8753875B2, “Compositions and means for diagnosing microbial infections” (priority 2007, dated 2014).
Read-outs that look alike come from different tables or passages of the source.

How the values were obtained:
E. faecalis [1] = test system: E. faecalis; set-up: key: Susceptible = S; Resistant = R; details: cited from earlier work
E. faecium [2] = test system: E. faecium; set-up: key: Susceptible = S; Resistant = R; details: cited from earlier work
Candida sp. = test system: Candida sp.; set-up: key: Susceptible = S; Resistant = R; details: cited from earlier work
E. coli [3] = test: Growth of E. coli in antibiotic compartments of the platform (FIG. 3); assay type: cell-based; details: illustrated E. coli of FIG. 3
Excerpt: The photos show growth of E. coli at different quantities of bacteria/ml urine.

P. vulgaris [4] = test system: P. vulgaris; set-up: key: Susceptible = S; Resistant = R; details: cited from earlier work
Citrobacter = test system: Citrobacter; set-up: key: Susceptible = S; Resistant = R; details: cited from earlier work
Klebsiella = test system: Klebsiella; set-up: key: Susceptible = S; Resistant = R; details: cited from earlier work
Morganella = test system: Morganella; set-up: key: Susceptible = S; Resistant = R; details: cited from earlier work
P. mirabilis = test system: P. mirabilis; set-up: key: Susceptible = S; Resistant = R; details: cited from earlier work
S. agalactiae = test system: S. agalactiae; set-up: key: Susceptible = S; Resistant = R; details: cited from earlier work
Citrobacter spp. = test: Growth on Flexicult plate, susceptibility/resistance to the five antibiotics (FIG. 4, Table A); assay type: cell-based
Excerpt: (§1) The kit was developed for urine culture in the primary health care setting. It is designed preferably as a nine cm Petri dish divided into six compartments: One larger compartment for quantitative analysis and five smaller compartments for susceptibility testing. The agar in each small compartment contains one of five antimicrobials (for Denmark and Scandinavia preferably: trimethoprim, sulfamethizole, ampicillin, nitrofurantoin and mecillinam (amdinocillin)) at a concentration adjusted to the breakpoint, such that growth in these compartments indicates resistance, and no growth indicates susceptibility. The Petri dish preferably has higher sides, approximately 2.48 cm, than the usual dish, i.e. ca. 1.48 cm. This allows a larger amount, maximum 100 ml, of urine to be poured onto the dish for inoculation.
(§2) Reading the susceptibility of the bacterial growth: Each bacterium (if more than one) is read individually: The growth in each of the antibiotic fields is compared with the growth on the control agar. […] If there is no growth (or substantially less than the control agar), then the bacterium is considered to be susceptible to the antibiotic. […] When nitrofurantoin and mecillinam are used as antibiotics, a few single colonies may be seen of the same type as the bacterium on the control agar: These are not considered to be resistant mutants but “persisters,” i.e. if retested they will appear susceptible. This is commonly seen also by disc diffusion especially for mecillinam.

Klebsiella spp. = test: as above; assay type: cell-based
Excerpt: as §1, §2

Morganella spp. = test: as above; assay type: cell-based
Excerpt: as §1, §2

E. faecium [5] = test: as above; assay type: cell-based
Excerpt: as §1, §2

E. coli [6] = test: as above; assay type: cell-based
Excerpt: as §1, §2

S. saprophyticus [7] = test: as above; assay type: cell-based
Excerpt: as §1, §2

Enterobacter spp = test: as above; assay type: cell-based
Excerpt: as §1, §2

E. faecalis [8] = test: as above; assay type: cell-based
Excerpt: as §1, §2

Proteus mirabilis = test: as above; assay type: cell-based
Excerpt: as §1, §2

P. vulgaris [9] = test: as above; assay type: cell-based
Excerpt: as §1, §2

P. aureginosa = test: as above; assay type: cell-based
Excerpt: as §1, §2

Candida spp. = test: as above; assay type: cell-based
Excerpt: as §1, §2

Enterobacter = test system: Enterobacter; set-up: key: Susceptible = S; Resistant = R; details: cited from earlier work
E. coli [10] = test system: E. coli; set-up: key: Susceptible = S; Resistant = R; details: cited from earlier work
E. coli [11] = details: cited from earlier work
Pseud. Aeruginosa = test system: Pseud. Aeruginosa; set-up: key: Susceptible = S; Resistant = R; details: cited from earlier work
[12] = Stability of the antimicrobial in the semi-solid media; assay type: physicochemical; details: pH-value of the semi-solid media adjusted to 6.0
Excerpt: Stability of the antimicrobial in the semi-solid media may depend on the pH-value. The pH-value should preferably not exceed certain limits as this will influence the antimicrobial effect. The stability of Ampicillin and Mecillinam has been improved by adjusting the pH-value of the semi-solid media to 6.0.

S. saprophyticus [13] = test system: S. saprophyticus; set-up: key: Susceptible = S; Resistant = R; details: cited from earlier work

In the case of `CC1(C)S[C@@H]2[C@H](/N=C/N3CCCCCC3)C(=O)N2[C@H]1C(=O)O` [Mecillinam, 6-Amidinopenicillanic acid derivatives; amdinocillin: 46-[[(hexahydro-1H-azepin-1-yl)methylene]amino]-3,3-dimethyl-7-oxo-, (2S,5R,6R)--Thia-1-azabicyclo[3.2.0]heptane-2-carboxylic acid], the Normal susceptibility/resistance (E. faecalis [1]) is listed as “R”, the Normal susceptibility/resistance (E. faecium [2]) is listed as “R” and the Normal susceptibility/resistance (Candida sp.) is listed as “R”. For the same compound, the “resistant or susceptible (growth in antibiotic compartment)” value (E. coli [3]) was “susceptible”, the Normal susceptibility/resistance (P. vulgaris [4]) was “R” and the Normal susceptibility/resistance (Citrobacter) was “S”. The Normal susceptibility/resistance (Klebsiella) was “S”, the Normal susceptibility/resistance (Morganella) was “R” and the Normal susceptibility/resistance (P. mirabilis) was “S/R”. For the same compound, the Normal susceptibility/resistance (S. agalactiae) was “R”, the “Susceptibility = S or Resistance = R” value (Citrobacter spp.) was “S” and the “Susceptibility = S or Resistance = R” value (Klebsiella spp.) was “S”. The “Susceptibility = S or Resistance = R” value (Morganella spp.) was “R”, the “Susceptibility = S or Resistance = R” value (E. faecium [5]) was “S” and the “Susceptibility = S or Resistance = R” value (E. coli [6]) was “S”. The “Susceptibility = S or Resistance = R” value (S. saprophyticus [7]) was “S”, the “Susceptibility = S or Resistance = R” value (Enterobacter spp) was “R” and the “Susceptibility = S or Resistance = R” value (E. faecalis [8]) was “S”. For the same compound, the “Susceptibility = S or Resistance = R” value (Proteus mirabilis) was “R”, the “Susceptibility = S or Resistance = R” value (P. vulgaris [9]) was “R” and the “Susceptibility = S or Resistance = R” value (P. aureginosa) was “R”. For the same compound, the “Susceptibility = S or Resistance = R” value (Candida spp.) was “R”, the Normal susceptibility/resistance (Enterobacter) was “S” and the Normal susceptibility/resistance (E. coli [10]) was “S”. The “Antimicrobial resistance of E. coli (resistance in percent)” value (E. coli [11]; Austria, n 126) was 1.6%, the “Antimicrobial resistance of E. coli (resistance in percent)” value (E. coli [11]; Belgium, n 137) was 1.5% and the “Antimicrobial resistance of E. coli (resistance in percent)” value (E. coli [11]; Canada, n 166) was 1.2%. The “Antimicrobial resistance of E. coli (resistance in percent)” value (E. coli [11]; Denmark, n 85) was 1.2%, the “Antimicrobial resistance of E. coli (resistance in percent)” value (E. coli [11]; Finland, n 182) was 0.5% and the “Antimicrobial resistance of E. coli (resistance in percent)” value (E. coli [11]; France, n 199) was 1.5%. The “Antimicrobial resistance of E. coli (resistance in percent)” value (E. coli [11]; Germany, n 138) was 2.2%, the “Antimicrobial resistance of E. coli (resistance in percent)” value (E. coli [11]; Greece, n 132) was 0.8% and the “Antimicrobial resistance of E. coli (resistance in percent)” value (E. coli [11]; Ireland, n 154) was 0.6%. The “Antimicrobial resistance of E. coli (resistance in percent)” value (E. coli [11]; Luxembourg, n 24) was 0%, the “Antimicrobial resistance of E. coli (resistance in percent)” value (E. coli [11]; Norway, n 168) was 0% and the “Antimicrobial resistance of E. coli (resistance in percent)” value (E. coli [11]; Portugal, n 86) was 2.3%. The “Antimicrobial resistance of E. coli (resistance in percent)” value (E. coli [11]; Spain, n 191) was 1.0%, the “Antimicrobial resistance of E. coli (resistance in percent)” value (E. coli [11]; Sweden, n 193) was 1.6% and the “Antimicrobial resistance of E. coli (resistance in percent)” value (E. coli [11]; Switzerland, n 122) was 0%. The “Antimicrobial resistance of E. coli (resistance in percent)” value (E. coli [11]; The Netherlands, n 195) was 1.5%, the “Antimicrobial resistance of E. coli (resistance in percent)” value (E. coli [11]; Total, n 2478) was 1.2% and the “Antimicrobial resistance of E. coli (resistance in percent)” value (E. coli [11]; United Kingdom, n 180) was 1.7%. The Normal susceptibility/resistance (Pseud. Aeruginosa) was “R”, the “stability in the semi-solid media” value [12] was “improved” and the Normal susceptibility/resistance (S. saprophyticus [13]) was “S/R”.
For `COc1cc(Cc2cnc(N)nc2N)cc(OC)c1OC` [Trimethoprim, S-(3,4,5-trimethoxybenzyl)pyrimidine-2,4-diamine], the Normal susceptibility/resistance (E. faecalis [1]) is listed as “S”, the Normal susceptibility/resistance (E. faecium [2]) is listed as “S” and the Normal susceptibility/resistance (Candida sp.) is listed as “R”. The “resistant or susceptible (growth in antibiotic compartment)” value (E. coli [3]) was “susceptible”, the Normal susceptibility/resistance (P. vulgaris [4]) was “S” and the Normal susceptibility/resistance (Citrobacter) was “S”. For the same compound, the Normal susceptibility/resistance (Klebsiella) was “S”, the Normal susceptibility/resistance (Morganella) was “S” and the Normal susceptibility/resistance (P. mirabilis) was “S”. For the same compound, the Normal susceptibility/resistance (S. agalactiae) was “S”, the “Susceptibility = S or Resistance = R” value (Citrobacter spp.) was “S” and the “Susceptibility = S or Resistance = R” value (Klebsiella spp.) was “S”. The “Susceptibility = S or Resistance = R” value (Morganella spp.) was “S”, the “Susceptibility = S or Resistance = R” value (E. faecium [5]) was “S” and the “Susceptibility = S or Resistance = R” value (E. coli [6]) was “S”. For the same compound, the “Susceptibility = S or Resistance = R” value (S. saprophyticus [7]) was “S”, the “Susceptibility = S or Resistance = R” value (Enterobacter spp) was “S” and the “Susceptibility = S or Resistance = R” value (E. faecalis [8]) was “S”. The “Susceptibility = S or Resistance = R” value (Proteus mirabilis) was “S”, the “Susceptibility = S or Resistance = R” value (P. vulgaris [9]) was “S” and the “Susceptibility = S or Resistance = R” value (P. aureginosa) was “R”. For the same compound, the “Susceptibility = S or Resistance = R” value (Candida spp.) was “R”, the Normal susceptibility/resistance (Enterobacter) was “S” and the Normal susceptibility/resistance (E. coli [10]) was “S”. For the same compound, the “Antimicrobial resistance of E. coli (resistance in percent)” value (E. coli [11]; Austria, n 126) was 9.5%, the “Antimicrobial resistance of E. coli (resistance in percent)” value (E. coli [11]; Belgium, n 137) was 13.9% and the “Antimicrobial resistance of E. coli (resistance in percent)” value (E. coli [11]; Canada, n 166) was 10.8%. The “Antimicrobial resistance of E. coli (resistance in percent)” value (E. coli [11]; Denmark, n 85) was 10.6%, the “Antimicrobial resistance of E. coli (resistance in percent)” value (E. coli [11]; Finland, n 182) was 5.5% and the “Antimicrobial resistance of E. coli (resistance in percent)” value (E. coli [11]; France, n 199) was 15.6%. The “Antimicrobial resistance of E. coli (resistance in percent)” value (E. coli [11]; Germany, n 138) was 22.5%, the “Antimicrobial resistance of E. coli (resistance in percent)” value (E. coli [11]; Greece, n 132) was 13.6% and the “Antimicrobial resistance of E. coli (resistance in percent)” value (E. coli [11]; Ireland, n 154) was 22.1%. The “Antimicrobial resistance of E. coli (resistance in percent)” value (E. coli [11]; Luxembourg, n 24) was 16.7%, the “Antimicrobial resistance of E. coli (resistance in percent)” value (E. coli [11]; Norway, n 168) was 13.1% and the “Antimicrobial resistance of E. coli (resistance in percent)” value (E. coli [11]; Portugal, n 86) was 26.7%. The “Antimicrobial resistance of E. coli (resistance in percent)” value (E. coli [11]; Spain, n 191) was 25.1%, the “Antimicrobial resistance of E. coli (resistance in percent)” value (E. coli [11]; Sweden, n 193) was 8.8% and the “Antimicrobial resistance of E. coli (resistance in percent)” value (E. coli [11]; Switzerland, n 122) was 18.9%. For the same compound, the “Antimicrobial resistance of E. coli (resistance in percent)” value (E. coli [11]; The Netherlands, n 195) was 12.3%, the “Antimicrobial resistance of E. coli (resistance in percent)” value (E. coli [11]; Total, n 2478) was 14.8% and the “Antimicrobial resistance of E. coli (resistance in percent)” value (E. coli [11]; United Kingdom, n 180) was 13.3%. For the same compound, the Normal susceptibility/resistance (Pseud. Aeruginosa) was “R” and the Normal susceptibility/resistance (S. saprophyticus [13]) was “S”.
